According to US12590106B2, “Spiromacrocyclic orexin 2 receptor agonists” (H. Lundbeck A/S, priority 2023, dated 2026):
Read-outs that look alike come from different tables or passages of the source.

Biological target: T1, human Ox2R (Homo sapiens, UniProt O43614)
T1 construct: The gene encoding hOx2R was subcloned into the expression plasmid pcDNA5/FRT/TO; expressed in transfected cells; host or cells: CHO Flp-In cells (pcDNA5/FRT/TO with pOG44 Flp recombinase vector, hygromycin B selection)
T1 sequence (O43614 1-444): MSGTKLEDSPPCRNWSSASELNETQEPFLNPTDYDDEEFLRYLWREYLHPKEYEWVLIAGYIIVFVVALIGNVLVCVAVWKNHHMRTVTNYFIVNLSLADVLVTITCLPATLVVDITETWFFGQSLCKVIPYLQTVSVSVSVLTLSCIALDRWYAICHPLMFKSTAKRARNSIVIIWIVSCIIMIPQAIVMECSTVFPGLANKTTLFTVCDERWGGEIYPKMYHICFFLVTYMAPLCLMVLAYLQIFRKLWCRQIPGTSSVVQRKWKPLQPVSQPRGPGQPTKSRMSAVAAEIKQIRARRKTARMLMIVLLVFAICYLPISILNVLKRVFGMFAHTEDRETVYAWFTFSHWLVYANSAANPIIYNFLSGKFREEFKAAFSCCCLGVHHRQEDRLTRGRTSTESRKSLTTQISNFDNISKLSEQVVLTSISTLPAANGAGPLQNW
Experiment: Measurement of OX2R agonist activity (cell-based calcium release assay)
Settings: for EC50: intracellular calcium
Description: Measurement of OX2R Agonist Activity
The Ox2R has a broad signaling profile and couple to a range of different Gα-proteins. The cell-based calcium release assay is primarily assessing signaling through the Gαq signaling pathway, which promotes calcium mobilization via inositol triphosphate production upon activation of Ox2R.
A CHO Flp-In cell-line stably expressing the human Ox2R (hOx2R-CHO Flp-In) was established as follows: The gene encoding hOx2R was subcloned into the expression plasmid pcDNA5/FRT/TO and then transfected into CHO Flp-In cells together with the Flp recombinase vector, pOG44. Cells were cultured in growth medium: Ham's F12 (Gibco), 10% fetal bovine serum (Gibco) and 100 U/mL penicillin-streptomycin (Gibco) supplemented with hygromycin B (Thermo Fisher Scientific) as selection marker at 37° C. in the presence of 5% CO2.
To prepare the hOx2R-CHO FlpIn cells for calcium release assay, the cells were suspended in growth medium and seeded in black, clear-bottomed 384-well plates (Corning) at 10,000 cells/well. The plated cells were grown overnight at 37° C. and 5% CO2. The following day, the media was removed, and the cells were incubated with assay buffer (HBSS with 20 mM HEPES, pH 7.4) containing 2.5 mM probenecid (Thermo Fisher Scientific), 10 mM CaCl2, 0.1% pluronic F68 (Gibco) and 1× calcium-4 dye (Molecular Devices) for 1 h at 37° C. and 5% CO2. After incubation, cells were allowed to equilibrate at room temperature for 15 minutes and then loaded into FDSS7000Ex system (Hamamatsu Photonics) together with a plate containing test compounds serially diluted in assay buffer. Cells were stimulated with test compounds (online injection) and the agonist activity was determined as an increase in intracellular calcium concentration measured from the ratio of fluorescence emission at 542 nm by excitation at 480 nm. The agonist response for each applied concentration was assessed as the ratio: maximum fluorescence/average pre-stimulated fluorescence and was normalized to responses from assay buffer alone (0% response) and 10 μM Danavorexton (100% response). EC50 and Emax values were calculated from concentration-response curves by using Genedata Screener software.

[1] = hOx2R-CHO Flp-In cells, n≥2 tests, read-out: EC50
[2] = hOx2R-CHO Flp-In cells, normalized to assay buffer (0%) and 10 μM Danavorexton (100%), n≥2 tests
[3] = hOx2R-CHO Flp-In cells, normalized to assay buffer (0%) and 10 μM Danavorexton (100%), n≥2 tests, read-out: Emax (%)

EC50 [1] [nM] | Emax [3] [%] | Compound | Emax (%) [2] [%] | Emax [%] | EC50 (EC50 (nM), hOx2R-CHO Flp-In cells, n≥2 tests) [nM]
0.17 |  | CS(=O)(=O)NC1CCC2(C1)c1nc(co1)COc1c(F)cccc1-c1cc(ccc1F)C2F (single isomer, unassigned) [Example 78, N-[(1′S,14R,15S or 15R)-6,15,19-trifluorospiro[8,12-dioxa-21-azatetracyclo[14.3.1.110,13.02,7]henicosa-1(19),2,4,6,10,13(21),16(20),17-octaene-14,3′-cyclopentane]-1′-yl]methanesulfonamide] | 95 |  | 
0.67 | 96 | CS(=O)(=O)N[C@H]1CC[C@@]2(Cc3cc(c(F)cc3F)-c3cccc(F)c3OCc3cc(=O)[nH]c2n3)C1 [Example 101, N-[(1′S,15R)-6,18,20-trifluoro-12-oxo-spiro[8-oxa-13,22-diazatetracyclo[15.3.1.110,14.02,7]docosa-1(20),2(7),3,5,10,14(22),17(21),18-octaene-15,3′-cyclopentane]-1′-yl]methanesulfonamide] |  |  | 
8 | 100 | CS(=O)(=O)N[C@H]1CC[C@@]2(Cc3ccc(F)c(c3)-c3cccc(F)c3OCc3nccc2n3)C1 [Example 95, N-[(1′S,15R)-6,20-difluorospiro[8-oxa-11,22-diazatetracyclo[15.3.1.110,14.02,7]docosa-1(20),2,4,6,10,12,14(22),17(21),18-nonaene-15,3′-cyclopentane]-1′-yl]methanesulfonamide] |  |  | 
3.7 | 110 | C[C@@H]1Oc2ccccc2-c2cccc(c2)C[C@@]2(CC[C@H](NS(C)(=O)=O)C2)c2nccc1n2 (single isomer, unassigned) [Example 89, N-[(1′S,9S*,15R)-9-methylspiro[8-oxa-13,22-diazatetracyclo[15.3.1.110,14.02,7]docosa-1(21),2,4,6,10,12,14(22),17,19-nonaene-15,3′-cyclopentane]-1′-yl]methanesulfonamide] |  |  | 
2.3 | 100 | C[C@H]1Oc2c(F)cccc2-c2cc(ccc2F)C[C@@]2(CC[C@H](NS(C)(=O)=O)C2)c2nc1co2 [Example 85, N-[(1′S,9R,14R)-6,19-difluoro-9-methyl-spiro[8,12-dioxa-21-azatetracyclo[14.3.1.110,13.02,7]henicosa-1(19),2(7),3,5,10,13(21),16(20),17-octaene-14,3′-cyclopentane]-1′-yl]methanesulfonamide] |  |  | 
0.1 | 100 | CS(=O)(=O)N[C@@H]1C[C@]2(Cc3ccc(F)c(c3)-c3cccc(F)c3OCc3ccnc2n3)[C@H]2C[C@@H]12 [Example 118, N-[(1′R,2′R,5′S,15R)-6,20-difluorospiro[8-oxa-13,22-diazatetracyclo[15.3.1.110,14.02,7]docosa-1(21),2,4,6,10,12,14(22),17,19-nonaene-15,4′-bicyclo[3.1.0]hexane]-2′-yl]methanesulfonamide] |  |  | 
90 | 100 | CS(=O)(=O)N[C@H]1CC[C@@]2(Cc3cccc(c3)-c3cccc(c3)OCc3ccnc2n3)C1 [Example 86, N-[(1′S,14R)-spiro[7-oxa-12,21-diazatetracyclo[14.3.1.12,6.19,13]docosa-1(20),2,4,6(22),9,11,13(21),16,18-nonaene-14,3′-cyclopentane]-1′-yl]methanesulfonamide] |  |  | 
2 | 100 | CS(=O)(=O)N[C@H]1CC[C@@]2(Cc3ccc(F)c(c3)-c3ccc(F)c(F)c3OCc3ccnc2n3)C1 [Example 87, N-[(1′S,15R)-5,6,20-trifluorospiro[8-oxa-13,22-diazatetracyclo[15.3.1.110,14.02,7]docosa-1(21),2,4,6,10,12,14(22),17,19-nonaene-15,3′-cyclopentane]-1′-yl]methanesulfonamide] |  |  | 

Second part, the molecule before the results:

Compound | EC50 [1] [nM] | Emax [3] [%] | Emax (%) [2] [%] | Emax [%] | EC50 (EC50 (nM), hOx2R-CHO Flp-In cells, n≥2 tests) [nM]
C[C@H]1C[C@H](NS(C)(=O)=O)C[C@]12Cc1ccc(F)c(c1)-c1cccc(F)c1OCc1coc2n1 [Example 60, N-[(1′S,4′S,14R)-6,19-difluoro-4′-methyl-spiro[8,12-dioxa-21-azatetracyclo[14.3.1.110,13.02,7]henicosa-1(19),2,4,6,10,13(21),16(20),17-octaene-14,3′-cyclopentane]-1′-yl]methanesulfonamide or N-[(1′R,4′R,14S)-6,19-difluoro-4′-methyl-spiro[8,12-dioxa-21-azatetracyclo[14.3.1.110,13.02,7]henicosa-1(19),2,4,6,10,13(21),16(20),17-octaene-14,3′-cyclopentane]-1′-yl]methanesulfonamide] | 0.33 |  | 100 |  | 
CS(=O)(=O)N[C@H]1CC[C@@]2(Cc3cccc(c3)-c3cccnc3NCc3coc2n3)C1 [Example 74, N-[(1′S,14R)-spiro[12-oxa-6,8,21-triazatetracyclo[14.3.1.110,13.02,7]henicosa-1(20),2,4,6,10,13(21),16,18-octaene-14,3′-cyclopentane]-1′-yl]methanesulfonamide] | 92 | 100 |  |  | 
CS(=O)(=O)N[C@H]1CC[C@@]2(CO[C@H]3CC[C@H](CC3)c3ccccc3OCc3coc2n3)C1 [Example 2, N-[(1s,1′S,14R,17s)-spiro[8,12,16-trioxa-22-azatetracyclo[15.2.2.110,13.02,7]docosa-2,4,6,10,13(22)-pentaene-14,3′-cyclopentane]-1′-yl]methanesulfonamide] | 0.43 | 99 |  |  | 
CNS(=O)(=O)N[C@H]1CC[C@@]2(Cc3ccc(F)c(c3)-c3ccccc3OCc3coc2n3)C1 [Example 12, (1′S,14R)-19-fluoro-N-(methylsulfamoyl)spiro[8,12-dioxa-21-azatetracyclo[14.3.1.110,13.02,7]henicosa-1(19),2,4,6,10,13(21),16(20),17-octaene-14,3′-cyclopentane]-1′-amine] | 0.19 | 100 |  |  | 
CS(=O)(=O)N[C@H]1CC[C@@]2(Cc3ccc(F)c(c3)-c3cccc(F)c3OCc3csc2n3)C1 [Example 46, N-[(1′S,14R)-6,19-difluorospiro[8-oxa-12-thia-21-azatetracyclo[14.3.1.110,13.02,7]henicosa-1(19),2,4,6,10,13(21),16(20),17-octaene-14,3′-cyclopentane]-1′-yl]methanesulfonamide] | 0.14 | 99 |  |  | 
CS(=O)(=O)N[C@H]1CC[C@@]2(Cc3ccc(F)c(c3)-c3cccc(F)c3OCC3=NN=C2O3)C1 [Example 71, N-[(1′S,14R)-6,19-difluorospiro[8,21-dioxa-11,12-diazatetracyclo[14.3.1.110,13.02,7]henicosa-1(19),2(7),3,5,10,12,16(20),17-octaene-14,3′-cyclopentane]-1′-yl]methanesulfonamide] | 49 | 97 |  |  | 
C[C@H]1C[C@H](NS(C)(=O)=O)C[C@]12Cc1ccc(F)c(c1)-c1cccc(F)c1OCc1ccnc2n1 (single isomer, unassigned) [Example 94, N-[(1′S,4′S,15R)-6,20-difluoro-4′-methyl-spiro[8-oxa-13,22-diazatetracyclo[15.3.1.110,14.02,7]docosa-1(20),2,4,6,10,12,14(22),17(21),18-nonaene-15,3′-cyclopentane]-1′-yl]methanesulfonamide or N-[(1′R,4′R,15S)-6,20-difluoro-4′-methyl-spiro[8-oxa-13,22-diazatetracyclo[15.3.1.110,14.02,7]docosa-1(20),2,4,6,10,12,14(22),17(21),18-nonaene-15,3′-cyclopentane]-1′-yl]methanesulfonamide] |  |  |  | 94 | 6.7
CS(=O)(=O)N[C@H]1CC[C@@]2(Cc3ccc(F)c(c3)-c3ccc(F)cc3OCc3coc2n3)C1 [Example 15, N-[(1′S,14R)-5,19-difluorospiro[8,12-dioxa-21-azatetracyclo[14.3.1.110,13.02,7]henicosa-1(19),2,4,6,10,13(21),16(20),17-octaene-14,3′-cyclopentane]-1′-yl]methanesulfonamide] | 8.1 | 98 |  |  | 
